Assay results taken from patent US10106578B2, “Melanocortin-1 receptor-specific linear peptides” (Palatin Technologies, Inc., priority 2012, dated 2018).
Where a SMILES comes first, the peptide text is derived from it. [ ]: non-standard residue; d: D form. Nle = CCCC[C@H](N)C(=O)O

Assays:
hMCR-1 = biological target: T1, hMCR-1 (Homo sapiens, UniProt Q01726); test: Assay for agonist activity: cAMP accumulation in HBL human melanoma cells; format: cell-based; details: for Emax: compared to reference agonist NDP-α-MSH, read-out: MC-1 Emax (average; cAMP HBL); for EC50: read-out: MC-1 EC50 (average; cAMP HBL)
T1 construct: endogenous in cells; host or cells: HBL human melanoma cell line
Text: Accumulation of intracellular cAMP was examined as a measure of the ability of the peptides of the present invention to elicit a functional response in a human melanoma cell line, HBL, that express hMCR-1 (see Kang, L., et al., “A selective small molecule agonist of melanocortin-1 receptor inhibits lipopolysaccharide-induced cytokine accumulation and leukocyte infiltration in mice,” J. Leuk. Biol. 80:897-904 (2006)) or HEK-293 cells that express hMCR-4. Confluent HBL cells that express hMCR-1 or HEK-293 cells that express recombinant hMCR-4 were detached from culture plates by incubation in enzyme-free cell dissociation buffer. Dispersed cells were suspended in Earle's Balanced Salt Solution containing 10 mM HEPES (pH 7.5), 1 mM MgCl2, 1 mM glutamine, 0.5% albumin and 0.3 mM 3-isobutyl-1-methyl-xanthine (IBMX), a phosphodiesterase inhibitor. The cells were plated in 96-well plates at a density of 0.4×10^5 cells per well for HBL cells and 0.5×10^5 cells per well for HEK-293 cells and pre-incubated for 10 minutes. Cells were exposed for 15 minutes at 37° C. to peptides of the present invention dissolved in DMSO (final DMSO concentration of 1%) at a concentration range of 0.05-5000 nM in a total assay volume of 200 μL. NDP-α-MSH was used as the reference agonist. cAMP levels were determined by an HTRF® cAMP cell-based assay system from Cisbio Bioassays utilizing cryptate-labeled anti-cAMP and d2-labeled cAMP, with plates read on a Perkin-Elmer Victor plate reader at […]. Data analysis was performed by nonlinear regression analysis with Graph-Pad PRISM® software. Maximum efficacy (Emax) values were determined for each test peptide of the present invention, compared to that achieved by the reference melanocortin agonist NDP-α-MSH.
(§1) Peptides of the following structures were synthesized and purified as described in Section 5 above, with the resulting peptide having the structure depicted. After synthesis and purification, the foregoing peptide was tested as described in Section 8 above, and average MCR-1 and MCR-4 Ki values determined as indicated. All Ki values were determined using [I^125]-NDP-α-MSH. All results are expressed in nM except for Emax values, which are percentage values.

hMCR-4 = biological target: T2, hMCR-4 (Homo sapiens, UniProt P32245); test: Competitive inhibition binding assay using [I125]-NDP-α-MSH, hMCR-4 membranes; details: HEK-293 membranes, recombinant human MCR-4, [I125]-NDP-α-MSH; read-out: MC-4 Ki (average)
T2 construct: expressed in transfected cells; host or cells: HEK-293 cells (membrane homogenates)
Procedure: (§2) A competitive inhibition binding assay was performed using membrane homogenates prepared from HEK-293 cells that express recombinant hMCR-1a or hMCR-4 (in each instance where the h prefix refers to human), or alternatively membrane homogenates from B16-F10 mouse melanoma cells containing endogenous murine MCR-1. In the examples that follow, all MCR-1 and MCR-4 values are for human recombinant receptors, unless otherwise noted. Assays were performed in 96 well polypropylene round-bottom plates (VWR catalog number 12777-030). Membrane homogenates were incubated with 0.1 nM [I^125]-NDP-α-MSH (Perkin Elmer) and increasing concentrations of test peptides of the present invention in buffer containing 25 mM HEPES buffer (pH 7.5) with 100 mM NaCl, 2 mM CaCl2, 2 mM MgCl2, 0.3 mM 1,10-phenanthroline, and 0.2% bovine serum albumin. After incubation for 90 minutes at 37° C., the assay mixture was filtered onto GF/B Unifilter plates (Perkin-Elmer catalog number 6005177) and washed with 3 mL of ice-cold buffer per well. Filters were air dried and 35 μL of scintillation cocktail added to each well. Plates were counted in a Microbeta counter for bound radioactivity. Non-specific binding was measured by inhibition of binding of [I^125]-NDP-α-MSH in the presence of 1 μM NDP-α-MSH. Maximal specific binding (100%) was defined as the difference in radioactivity (cpm) bound to cell membranes in the absence and presence of 1 μM NDP-α-MSH. Each assay was conducted in duplicate and the actual mean values are described, with results less than 0% reported as 0%. Ki values for peptides of the present invention were determined using Graph-Pad PRISM® curve-fitting software.
as §1

hMCR-1a = biological target: T3, hMCR-1a (Homo sapiens, UniProt Q01726); test: Competitive inhibition binding assay using [I125]-NDP-α-MSH, hMCR-1a membranes; details: HEK-293 membranes, recombinant human MCR-1, [I125]-NDP-α-MSH; read-out: MC-1 Ki (average)
T3 construct: expressed in transfected cells; host or cells: HEK-293 cells (membrane homogenates)
Procedure: as §2, §1

T2 sequence (P32245 whole entry): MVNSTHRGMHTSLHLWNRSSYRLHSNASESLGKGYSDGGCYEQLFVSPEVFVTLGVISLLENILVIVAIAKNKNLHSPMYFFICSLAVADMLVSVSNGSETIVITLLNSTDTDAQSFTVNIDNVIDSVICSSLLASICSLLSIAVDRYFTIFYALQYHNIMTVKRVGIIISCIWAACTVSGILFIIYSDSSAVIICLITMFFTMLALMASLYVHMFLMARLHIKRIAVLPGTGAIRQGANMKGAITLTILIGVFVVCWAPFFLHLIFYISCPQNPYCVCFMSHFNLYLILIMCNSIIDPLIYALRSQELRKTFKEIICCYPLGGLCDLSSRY
T1 sequence (Q01726 whole entry): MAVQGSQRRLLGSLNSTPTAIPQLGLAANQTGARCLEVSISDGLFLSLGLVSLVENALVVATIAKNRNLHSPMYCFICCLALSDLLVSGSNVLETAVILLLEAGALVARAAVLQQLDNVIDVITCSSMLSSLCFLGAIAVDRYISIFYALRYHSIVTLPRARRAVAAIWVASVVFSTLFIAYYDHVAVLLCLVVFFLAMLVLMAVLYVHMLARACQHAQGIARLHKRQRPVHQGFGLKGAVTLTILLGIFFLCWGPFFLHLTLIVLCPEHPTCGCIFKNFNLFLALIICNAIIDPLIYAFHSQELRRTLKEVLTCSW
T3 sequence (Q01726 whole entry): as above

Row | Structure (SMILES) | Emax (hMCR-1) [%] | Ki (hMCR-4) [nM] | Ki (hMCR-1a) [nM] | EC50 (hMCR-1) [nM]
1 | CCCC[C@H](NC(C)=O)C(=O)N[C@@H](C)C(=O)N[C@@H](C)C(=O)N[C@H](Cc1ccccc1)C(=O)N[C@@H](CCCNC(=N)N)C(=O)N[C@@H](C)C(=O)N[C@@H](Cc1c[nH]c2ccccc12)C(N)=O [Example 9.17, Ac-Nle-Ala-Ala-D-Phe-Arg-Ala-Trp-NH2] (Ac-[Nle]AA[dF]RAW-NH2) | 94 | – | – | –
2 | CCCC[C@H](NC(C)=O)C(=O)N[C@@H](C)C(=O)N[C@@H](Cc1c[nH]cn1)C(=O)N[C@H](Cc1ccccc1)C(=O)N[C@@H](CCCNC(=N)N)C(=O)N[C@@H](C)C(=O)N[C@H](Cc1c[nH]c2ccccc12)C(N)=O [Example 9.9, Ac-Nle-Ala-His-D-Phe-Arg-Ala-D-Trp-NH2] (Ac-[Nle]AH[dF]RA[dW]-NH2) | 70 | 215 | 7 | –
3 | CCCC[C@H](NC(C)=O)C(=O)N[C@@H](C)C(=O)N[C@@H](Cc1c[nH]cn1)C(=O)N[C@@H](Cc1ccccc1)C(=O)N[C@@H](CCCNC(=N)N)C(=O)N[C@@H](C)C(=O)N[C@@H](Cc1c[nH]c2ccccc12)C(N)=O [Example 9.6, Ac-Nle-Ala-His-Phe-Arg-Ala-Trp-NH2] (Ac-[Nle]AHFRAW-NH2) | 72 | – | – | 4
4 | CCCC[C@H](NC(C)=O)C(=O)N[C@@H](Cc1c[nH]cn1)C(=O)N[C@H](Cc1ccccc1)C(=O)N[C@@H](CCCNC(=N)N)C(=O)N[C@@H](C)C(=O)N[C@@H](Cc1c[nH]c2ccccc12)C(N)=O [Example 9.3, Ac-Nle-His-D-Phe-Arg-Ala-Trp-NH2] (Ac-[Nle]H[dF]RAW-NH2) | 95 | – | – | 1
5 | CCCC[C@H](NC(C)=O)C(=O)N[C@H](Cc1ccccc1)C(=O)N[C@@H](CCCNC(=N)N)C(=O)N[C@@H](C)C(=O)N[C@@H](Cc1c[nH]c2ccccc12)C(N)=O [Example 9.15, Ac-Nle-D-Phe-Arg-Ala-Trp-NH2] (Ac-[Nle][dF]RAW-NH2) | 67 | 7120 | 1290 | –
6 | CCCC[C@H](NC(C)=O)C(=O)N[C@@H](C)C(=O)N[C@@H](Cc1ccccc1)C(=O)N[C@H](Cc1ccccc1)C(=O)N[C@@H](CCCNC(=N)N)C(=O)N[C@@H](C)C(=O)N[C@@H](Cc1c[nH]c2ccccc12)C(N)=O [Example 9.19, Ac-Nle-Ala-Phe-D-Phe-Arg-Ala-Trp-NH2] (Ac-[Nle]AF[dF]RAW-NH2) | 99 | – | 20 | 6
7 | CCCC[C@H](NC(C)=O)C(=O)N[C@@H](C)C(=O)N[C@@H](CCCNC(=N)N)C(=O)N[C@H](Cc1ccccc1)C(=O)N[C@@H](CCCNC(=N)N)C(=O)N[C@@H](C)C(=O)N[C@@H](Cc1c[nH]c2ccccc12)C(N)=O [Example 9.18, Ac-Nle-Ala-Arg-D-Phe-Arg-Ala-Trp-NH2] (Ac-[Nle]AR[dF]RAW-NH2) | 106 | – | – | –
8 | CCCC[C@H](NC(C)=O)C(=O)N[C@@H](C)C(=O)N[C@@H](Cc1c[nH]cn1)C(=O)N[C@H](Cc1ccccc1)C(=O)N[C@@H](CCCNC(=N)N)C(=O)NCC(=O)N[C@@H](Cc1c[nH]c2ccccc12)C(N)=O [Example 9.5, Ac-Nle-Ala-His-D-Phe-Arg-Gly-Trp-NH2] (Ac-[Nle]AH[dF]RGW-NH2) | 90 | – | – | –
9 | CCCC[C@H](NC(C)=O)C(=O)N[C@@H](C)C(=O)N[C@@H](Cc1c[nH]cn1)C(=O)N[C@H](Cc1ccccc1)C(=O)N[C@@H](CCCNC(=N)N)C(=O)N1CCC[C@H]1C(=O)N[C@@H](Cc1c[nH]c2ccccc12)C(N)=O [Example 9.2, Ac-Nle-Ala-His-D-Phe-Arg-Pro-Trp-NH2] (Ac-[Nle]AH[dF]RPW-NH2) | 78 | – | – | –

The remaining lines, values ahead:

Row | Emax (hMCR-1) [%] | Ki (hMCR-4) [nM] | Ki (hMCR-1a) [nM] | EC50 (hMCR-1) [nM] | Structure (SMILES)
10 | 75 | – | – | – | CCCC[C@H](NC(C)=O)C(=O)N[C@@H](C)C(=O)N[C@@H](Cc1c[nH]cn1)C(=O)N[C@@H](Cc1ccccc1)C(=O)N[C@@H](CCCNC(=N)N)C(=O)NCC(=O)N[C@@H](Cc1c[nH]c2ccccc12)C(N)=O [Example 9.7, Ac-Nle-Ala-His-Phe-Arg-Gly-Trp-NH2] (Ac-[Nle]AHFRGW-NH2)
11 | 107 | – | 4 | – | CCCC[C@H](NC(C)=O)C(=O)N[C@@H](C)C(=O)N[C@@H](CCCCN)C(=O)N[C@H](Cc1ccccc1)C(=O)N[C@@H](CCCNC(=N)N)C(=O)N[C@@H](C)C(=O)N[C@@H](Cc1c[nH]c2ccccc12)C(N)=O [Example 9.20, Ac-Nle-Ala-Lys-D-Phe-Arg-Ala-Trp-NH2] (Ac-[Nle]AK[dF]RAW-NH2)
12 | 72 | – | 20 | 2 | CCCC[C@H](NC(C)=O)C(=O)N[C@@H](C)C(=O)N[C@@H](Cc1c[nH]cn1)C(=O)N[C@H](Cc1ccccc1)C(=O)N[C@@H](CCCNC(=N)N)C(=O)N1CCC[C@@H]1C(=O)N[C@H](Cc1c[nH]c2ccccc12)C(N)=O [Example 9.12, Ac-Nle-Ala-His-D-Phe-Arg-D-Pro-D-Trp-NH2] (Ac-[Nle]AH[dF]R[dP][dW]-NH2)
13 | 85 | – | – | – | CCCC[C@H](NC(C)=O)C(=O)N[C@@H](C)C(=O)N[C@H](Cc1ccccc1)C(=O)N[C@@H](CCCNC(=N)N)C(=O)N[C@@H](C)C(=O)N[C@@H](Cc1c[nH]c2ccccc12)C(N)=O [Example 9.10, Ac-Nle-Ala-D-Phe-Arg-Ala-Trp-NH2] (Ac-[Nle]A[dF]RAW-NH2)
14 | 96 | – | – | – | CCCC[C@H](NC(C)=O)C(=O)N[C@@H](C)C(=O)N[C@@H](Cc1c[nH]cn1)C(=O)N[C@H](Cc1ccccc1)C(=O)N[C@@H](CCCNC(=N)N)C(=O)N[C@@H](C)C(=O)N[C@@H](Cc1c[nH]c2ccccc12)C(N)=O [Example 9.1, Ac-Nle-Ala-His-D-Phe-Arg-Ala-Trp-NH2] (Ac-[Nle]AH[dF]RAW-NH2)
15 | 70 | 6200 | 14 | 1 | CCCC[C@H](NC(C)=O)C(=O)N[C@@H](C)C(=O)N[C@@H](Cc1c[nH]cn1)C(=O)N[C@H](Cc1ccccc1)C(=O)N[C@@H](CCCNC(=N)N)C(=O)N1CCC[C@@H]1C(=O)N[C@@H](Cc1c[nH]c2ccccc12)C(N)=O [Example 9.11, Ac-Nle-Ala-His-D-Phe-Arg-D-Pro-Trp-NH2] (Ac-[Nle]AH[dF]R[dP]W-NH2)
16 | 55 | – | – | – | CCCC[C@H](NC(C)=O)C(=O)N[C@@H](Cc1c[nH]cn1)C(=O)N[C@@H](Cc1ccccc1)C(=O)N[C@@H](CCCNC(=N)N)C(=O)N[C@@H](C)C(=O)N[C@@H](Cc1c[nH]c2ccccc12)C(N)=O [Example 9.8, Ac-Nle-His-Phe-Arg-Ala-Trp-NH2] (Ac-[Nle]HFRAW-NH2)
17 | 73 | – | 6 | – | CCCC[C@H](NC(C)=O)C(=O)N[C@@H](C)C(=O)N[C@@H](Cc1c[nH]cn1)C(=O)N[C@H](Cc1ccccc1)C(=O)N[C@@H](CCCNC(=N)N)C(=O)N[C@@H](C)C(=O)N[C@@H](Cc1c[nH]c2ccccc12)C(=O)O [Example 9.14, Ac-Nle-Ala-His-D-Phe-Arg-Ala-Trp-OH] (Ac-[Nle]AH[dF]RAW-OH)
18 | 99 | – | – | 4 | CCCC[C@H](NC(C)=O)C(=O)N[C@@H](C)C(=O)N[C@@H](Cc1c[nH]cn1)C(=O)N[C@H](Cc1ccccc1)C(=O)N[C@@H](C)C(=O)N[C@@H](C)C(=O)N[C@@H](Cc1c[nH]c2ccccc12)C(N)=O [Example 9.16, Ac-Nle-Ala-His-D-Phe-Ala-Ala-Trp-NH2] (Ac-[Nle]AH[dF]AAW-NH2)
